≈ marks a conversion by molar mass, not a printed value.
Key:
VUN 110,013 = format: cell-based, Burkholderia sp.; details: substrate 50 mg l^−1 (or vapor phase), sole carbon source
Method: (§1) Gram staining and biochemical tests for bacterial identification were performed according to Collin et al. (1989) following growth in nutrient broth or nutrient agar. […] Compounds tested were added to BSM as a sole carbon and energy source at 50 mg l^−1, and volatile compounds were supplied to the culture in the vapour phase. […] The cells were collected and washed in BSM and the resuspended cells were inoculated into BSM containing different carbon sources. Inoculated BSM without an added carbon source and uninoculated BSM plus carbon source were used as controls. Inocula for the PAH degradation tests were transferred directly from parent cultures, but inocula for other carbon sources were washed prior to inoculation.

VUN 110,012 = experiment: Growth of PAH-degrading bacteria on a variety of carbon sources; format: cell-based, Stenotrophomonas maltophilia; details: substrate 50 mg l^−1 (or vapor phase), sole carbon source
Method: as §1

VUN 110,010 = experiment: as above; format: cell-based, Stenotrophomonas maltophilia; details: substrate 50 mg l^−1 (or vapor phase), sole carbon source
Method: as §1

VUN 110,011 = experiment: as above; format: cell-based, Pseudomonas fluorescens; details: substrate 50 mg l^−1 (or vapor phase), sole carbon source
Method: as §1

[1] = system: strains VUN 10,010, VUN 10,011 and VUN 10,012; experiment: Growth of all the strains on compounds as sole carbon and energy source; format: cell-based; details: supplied at 50 mg l^−1
Method: as §1

[2] = system: S. maltophilia VUN 10,010; experiment: Degradation of single high molecular weight PAHs by high initial populations of VUN 10,010 with surfactant; format: cell-based, Stenotrophomonas maltophilia
Method: […] Incubations contained a single PAH in BSM at 30° C. The PAH remaining was calculated as a percentage relative to the PAH recovered from the […]. Averages for the test cultures are from triplicate experiments.
Tergitol NP-10 (5 and 10 g l^−1) was added to BSM broths each containing a single high molecular weight PAH.

[3] = system: S. maltophilia VUN 10,010; experiment: Degradation of a PAH mixture by VUN 10,010 with surfactant, low initial cell population; format: cell-based, Stenotrophomonas maltophilia; details: for Maximum Specific Degradation Rate: — = not appreciable
Method: The incubations were conducted in BSM at 30° C., using low initial cell populations. The PAH remaining was calculated as a percentage relative to the PAH recovered from the uninoculated control. Averages for the test cultures are from triplicate experiments.
A low initial cell population of around 9×10^3 cells ml^−1 was used.

[4] = PAH solubilization by surfactants (apparent solubility, MSR, Km)
Method: PAHs (approximately 1 g l^−1) were added to a 10 ml solution of BSM plus surfactant in a 30 ml glass reaction vial, which was sealed with an aluminium cap fitted with a septum. Surfactant concentrations corresponded to levels above, below, and at the CMC, and replicates were set up to allow sampling in duplicate at different time intervals up to 72 h. Incubation was performed at 30° C. and 175 rpm. The entire vial contents was collected by syringe and expressed through a preconditioned membrane filter (0.22 μm, Sartorius AG, Germany) to remove solid-phase crystalline PAH while allowing solubilized PAH in the aqueous phase and micellar pseudophase to pass into sterile vials. The filter was preconditioned by purging the filter with a few mls of sample solution to allow sorption saturation of the internal surfaces of the syringe, filter and needle. The filtrates were extracted with dichloromethane (DCM), and the concentration of solubilized PAH was determined by GC-FID as described below.
The effectiveness of a particular surfactant in solubilizing a given PAH can be assessed by determining the molar solubilization ratio (MSR) and micelle/water partition coefficient (Km). In our study, the concentrations of added PAHs were well in excess of aqueous saturation concentrations; therefore the MSR value of each compound can be obtained from the slope of the curve generated from a plot of PAH concentration versus surfactant concentration for surfactant concentrations above CMC (Edwards et al, 1991).
Km values can be determined from the measured MSR values according to the following equation (Edwards et al, 1991): [formula]
^SPAH, CMC is the apparent solubility of the PAH (mol l^−1) at surfactant CMC. VW is the molar volume of water at 30° C. ie. 0.018015 l mol^−1(Rogers and Mayhew, 1981).

[5] = Tergitol NP-10 5 g l^−1, Single PAH
[6] = Tergitol NP-10 10 g l^−1, Single PAH
[7] = Tergitol NP-10 5 g l^−1, Mixed PAH

| Molecule | Growth (VUN 110,013) | Growth (VUN 110,012) | Growth (VUN 110,010) | Growth (VUN 110,011) | growth on compound as the sole carbon and energy source [1] | other results |
| --- | --- | --- | --- | --- | --- | --- |
| Oc1c(Cl)c(Cl)cc(Cl)c1Cl [2,3,5,6-tetrachloro-phenol] | + | + | + | + |  |  |
| Oc1cc(Cl)c(Cl)cc1Cl [2,4,5-trichloro-phenol] | + | + | + | + |  |  |
| Oc1cc(Cl)ccc1Cl [2,5-dichlorophenol] | + | + | + | + | grew |  |
| Oc1ccc(Cl)cc1 [4-chlorophenol] | + | + | + | − | grew |  |
| O=[N+]([O-])c1ccc(O)cc1 [4-nitrophenol] | − | − | − | − |  |  |
| c1ccccc1 [Benzene] | + | + | + | + | grew |  |
| O=C(O)c1ccccc1 [Benzoic acid] | + | + | + | + | grew |  |
| Oc1ccccc1O [Catechol] | + | + | + | + | grew |  |
| O=C(O)C=Cc1ccccc1 [Cinnamic acid] | − | − | + | − |  |  |
| c1cc2ccc3ccc4ccc5ccc6ccc1c1c2c3c4c5c61 [Coronene, coronene] |  |  |  |  |  | Maximum Specific Degradation Rate ([2]; Brij 35 5 g l^−1, Single PAH): 0.79 mg PAH degraded mg^−1 protein day^−1; percentage change in maximum specific degradation rate due to surfactant addition ([2]; Brij 35 5 g l^−1, Single PAH): +5%; Maximum Specific Degradation Rate ([2]; Brij 35 10 g l^−1, Single PAH): 1.19 mg PAH degraded mg^−1 protein day^−1; percentage change in maximum specific degradation rate due to surfactant addition ([2]; Brij 35 10 g l^−1, Single PAH): +59%; Maximum Specific Degradation Rate ([2]; No Surfactant, Single PAH): 0.75 mg PAH degraded mg^−1 protein day^−1; PAH degradation rate in the presence of surfactants ([2]; Tergitol NP-10 5 and 10 g l^−1, high initial cell population): did not show improved PAH degradation rate; Maximum Specific Degradation Rate [2, 5]: 0.98 mg PAH degraded mg^−1 protein day^−1; percentage change in maximum specific degradation rate due to surfactant addition [2, 5]: +31%; Maximum Specific Degradation Rate [2, 6]: 0.79 mg PAH degraded mg^−1 protein day^−1; percentage change in maximum specific degradation rate due to surfactant addition [2, 6]: +5% |
| CC(C)(CO)[C@@H](O)C(=O)NCCC(=O)O [D-panthothenic acid] | + | + | + | + |  |  |
| c1ccc2c(c1)-c1cccc3cccc-2c13 [Fluoranthene, fluoranthene] |  |  |  |  |  | Maximum Specific Degradation Rate ([3]; No Surfactant, Mixed PAH): 1.02 mg PAH degraded mg^−1 protein day^−1; percentage change in maximum specific degradation rate due to surfactant addition [3, 7]: +9%; Maximum Specific Degradation Rate [3, 7]: 1.11 mg PAH degraded mg^−1 protein day^−1; solubility ([4]; 30° C.): ~1.37 µM (≈ 0.277 µg/mL); solubility ([4]; 30 °C, aqueous with cosolvent or surfactant or cyclodextrin, thermodynamic from solid): 730 to 810 µM (≈ 148 to 164 µg/mL); Maximum Specific Degradation Rate ([2]; Brij 35 5 g l^−1, Single PAH): 3.71 mg PAH degraded mg^−1 protein day^−1; percentage change in maximum specific degradation rate due to surfactant addition ([2]; Brij 35 5 g l^−1, Single PAH): +28%; Maximum Specific Degradation Rate ([2]; Brij 35 10 g l^−1, Single PAH): 12.11 mg PAH degraded mg^−1 protein day^−1; percentage change in maximum specific degradation rate due to surfactant addition ([2]; Brij 35 10 g l^−1, Single PAH): +318%; Maximum Specific Degradation Rate ([2]; No Surfactant, Single PAH): 2.90 mg PAH degraded mg^−1 protein day^−1; Maximum Specific Degradation Rate [2, 5]: 4.54 mg PAH degraded mg^−1 protein day^−1; percentage change in maximum specific degradation rate due to surfactant addition [2, 5]: +57%; Maximum Specific Degradation Rate [2, 6]: 4.59 mg PAH degraded mg^−1 protein day^−1; percentage change in maximum specific degradation rate due to surfactant addition [2, 6]: +58% |
| O=C(O)c1cc(O)ccc1O [Gentisic acid] | + | + | + | + |  |  |
| O=C(O)/C=C\C(=O)O [Maleic acid] | + | + | + | + |  |  |
| O=[N+]([O-])c1ccccc1 [Nitrobenzene] | − | + | + | − |  |  |
| Oc1c(Cl)c(Cl)c(Cl)c(Cl)c1Cl [Pentachlorophenol] | − | + | + | − |  |  |
| O=C(O)c1ccccc1C(=O)O [Phthalic acid] | + | + | + | + | grew |  |
| O=C(O)c1ccc(O)c(O)c1 [Protocatechuic acid] | + | + | + | + | grew |  |
| CC(=O)C(=O)O [Pyruvate] | + | + | + | + |  |  |
| O=C(O)c1ccccc1O [Salicylic acid] | + | + | + | + | grew |  |
| O=C(O)CCC(=O)O [Succinic acid] | + | + | + | + | grew |  |
| Cc1ccccc1 [Toluene] | − | + | + | + | grew |  |
| CCCCCCCCCCCCCCCC [n-hexadecane] | + | + | + | + | grew |  |
| CCCCCCCC [n-octane] | + | + | + | + | grew |  |
| O=C(O)c1ccc(O)cc1 [p-hydroxybenzoic acid] | + | + | + | + | grew |  |
| Tween 20 | + | + | + | + | grew |  |
| Tween 40 |  |  |  |  | grew |  |
| Tween 60 |  |  |  |  | grew |  |
| Tween 80 | + | + | + | + | grew |  |

Reference: patent US20040023362A1, “Degradation of polycyclic aromatic hydrocarbons by microorganisms” (priority 2000, published 2004)
